Data published in patent publication US20160221991A1, “NOVEL TRIAZINE DERIVATIVE” (CARNA BIOSCIENCES, INC., priority 2013, published 2016).

System: anti-IgM antibody BCR stimulation-induced intracellular calcium influx in Ramos cells
Experiment: Inhibition test on the change of Ramos intracellular calcium ion
Type: cell-based
Settings: Fluo-8NW fluorescence, anti-IgM 2.0 μg/mL, FIG. 1
Protocol: The intracellular BTK inhibition by the compounds of the present invention was verified by measuring the effects of the compounds of the present invention on “anti-IgM antibody BCR stimulation-induced intracellular calcium influx”. One day before measurement, the Ramos cells were cultured as being suspended again at a cell density of 1.0×10^6 cells/mL in a fresh growth medium (growth medium as used in Test Example 2), and the cells were recovered next day by centrifugation and washed with RPMI-1640 medium supplemented with 5% penicillin-streptomycin (Nacalai Tesque, Inc.) (Medium 1). […] The Ramos intracellular calcium ion concentration was measured as a fluorescent intensity of the calcium indicator Fluo-8NW using a microplate reader (SynergyH1) (Ex/Em=490/525 nm) After measuring the baseline for 15 seconds, 50 μL of the anti-IgM antibody (Invitrogen, #H15100) diluted with Medium 2 to 10.4 μg/mL was added to each well described above (final concentration of 2.0 μg/mL) to effect BCR stimulation, and then the measurement was continued further for 150 seconds.

Structure (SMILES): Cn1cc(Nc2nc(N)nc(-c3ccnc(-n4ccc5cc(C6CC6)cc(F)c5c4=O)c3CO)n2)cc1C#N [Example 3, 4-({4-Amino-6-[2-(6-cyclopropyl-8-fluoro-1-oxoisoquinolin-2(1H)-yl)-3-(hydroxymethyl)pyridin-4-yl]-1,3,5-triazin-2-yl}amino)-1-methyl-1H-pyrrole-2-carbonitrile]
- inhibition of anti-IgM antibody BCR stimulation-induced intracellular calcium ion variation: in a concentration-dependent manner from a low concentration
